This is an account of results in paper PMC6934184, “Selective DNA-PKcs inhibition extends the therapeutic index of localized radiotherapy and chemotherapy” (The Journal of Clinical Investigation, 2019).

For the assay, the target named is T1, TAOK3 (JIK) (Homo sapiens, UniProt Q9H2K8).
T1 construct: purchased Thermo Fisher Scientific (Life Technologies) SelectScreen
Briefly: SelectScreen LanthaScreen. The assay is classed as binding. Conditions: read-out: % displacement. An outline of the steps: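 Percent values come from Thermo SelectScreen profiling of NU5455, combining activity and binding assays. CSF1R was run in Z'LYTE format at Km app ATP, and CAMK1 in Adapta format with ATP listed at 10.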

T1 sequence (Q9H2K8 whole entry): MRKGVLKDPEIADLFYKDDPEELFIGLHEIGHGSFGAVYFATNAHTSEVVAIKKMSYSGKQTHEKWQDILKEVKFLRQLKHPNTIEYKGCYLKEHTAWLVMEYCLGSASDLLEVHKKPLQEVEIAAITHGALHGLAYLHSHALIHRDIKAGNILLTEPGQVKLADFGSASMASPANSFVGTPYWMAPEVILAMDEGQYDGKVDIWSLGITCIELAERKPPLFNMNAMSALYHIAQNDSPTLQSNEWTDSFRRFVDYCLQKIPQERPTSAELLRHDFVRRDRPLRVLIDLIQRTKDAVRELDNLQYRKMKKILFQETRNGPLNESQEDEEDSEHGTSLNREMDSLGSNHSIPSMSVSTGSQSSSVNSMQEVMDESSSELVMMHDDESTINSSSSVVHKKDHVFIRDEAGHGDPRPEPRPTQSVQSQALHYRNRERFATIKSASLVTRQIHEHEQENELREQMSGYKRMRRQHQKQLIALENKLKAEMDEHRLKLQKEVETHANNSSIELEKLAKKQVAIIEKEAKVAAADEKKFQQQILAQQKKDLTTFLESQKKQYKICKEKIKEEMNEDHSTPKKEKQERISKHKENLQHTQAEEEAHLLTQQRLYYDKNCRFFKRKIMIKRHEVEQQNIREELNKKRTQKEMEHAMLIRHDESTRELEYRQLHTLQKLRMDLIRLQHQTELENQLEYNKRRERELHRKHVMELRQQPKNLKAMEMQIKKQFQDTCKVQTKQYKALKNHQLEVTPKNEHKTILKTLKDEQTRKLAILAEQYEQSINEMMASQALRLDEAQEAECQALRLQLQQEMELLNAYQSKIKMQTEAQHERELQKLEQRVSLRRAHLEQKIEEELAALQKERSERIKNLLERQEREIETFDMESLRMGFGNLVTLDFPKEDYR

As for `CN(C(=O)CN1CCOCC1)c1ccc2sc3c(-c4cccc5c(=O)cc(N6CC7CCC(C6)O7)oc45)cccc3c2c1` [NU5455], the inhibition at 1 µM amounted to 4.2%.
